Measured values published in paper PMC9096233, “Identification of an Au(I) N-Heterocyclic Carbene Compound as a Bactericidal Agent Against Pseudomonas aeruginosa” (Frontiers in Chemistry, 2022).
Values after ≈ are worked out from the molar mass of the structure shown. Where two headings read alike, the source gives them in different places.

Experiments:
P. aeruginosa PAO1 = assay: Mouse skin wound infection model; type: in vivo
Experimental: Six-week-old female BALB/c mice were used for animal experiments to evaluate the healing effect of infected wounds in vivo. Briefly, mouse backs were cut to generate a circular wound (diameter 0.6 cm) with a hole punch and the wound was infiltrated using a medical cotton swab with P. aureginosa (overnight culture, OD600 = 0.3). The mice were randomly divided into three groups, including PBS, auranofin, and Au-1 groups (n = 5 in each group). The drugs were dissolved in DMSO and diluted with glycerol to a final concentration of 50 μM. After the bacterial fluid was dry, about 20 μL of the drug was added to the wound. Body weights and wound photography was recorded on days 0, 1, 3, 5, and 8. And on the 8th day, the mice were euthanized by chloral hydrate, the infectious tissues in all groups were collected and cultured into the LB plate for colony counting. The skin tissues were also fixed by paraformaldehyde solution (4%) for H&E, Gram, and Masson’s trichrome staining.
The above results promoted us to further investigate whether the Au1 compound was also efficacious in an in vivo animal infection model. To this end, we used a mouse wound infection model to assess the anti-P. aeruginosa efficacy of Au1 as described previously ([Liao et al., 2017b]). In brief, a circular wound with a diameter of 6 mm was created on the flank of mice, and approximately 5 × 10^8 CFU of P. aeruginosa PAO1 were dipped onto the wound by medical cotton swab to induce infection. Treatment is administered on the 1st day with auranofin or Au1 compound (50 μM, 20 μL) was applied to the wounds. The wound sizes and mice weights were recorded each day. On the 8th day, the infection sites were excised and part of the tissues was fixed in 4% paraformaldehyde and embedded in paraffin. Four-micrometer sections were cut, stained with Gram, H&E, and Masson’s trichrome stain. The remained tissues were homogenized and serially diluted for CFU quantification (Figure 6A).

[1] = system: Staphylococcus aureus Newman; assay: MIC by standard broth dilution; type: cell-based; conditions: Table S1
Experimental: (§1) Pseudomonas aeruginosa strain PAO1 (P. aeruginosa) was grown in M9 minimal medium (1.0 g/L NH4Cl, 0.5 g/L NaCl, 6.0 g/L Na2HPO4, 3.0 g/L KH2PO4) supplemented with 1.0 mM MgSO4, 1.0 mM ZnSO4, 0.2 mM CaCl2, 0.4% (w/v) glucose and 0.2% (w/v) casein hydrolysate. Gram-negative Escherichia coli strain K-12 (E. coli) and Burkholderia cepacia J2315 (B. cepacia) were cultured in Luria-Bertani (LB) medium (5 g/L yeast extract, 10 g/L tryptone, 10 g/L sodium chloride). The Gram-positive Staphylococcus aureus strain Newman (S. aureus) was grown in Tryptic Soy Broth (TSB) medium (17 g/L Tryptone, 3 g/L Phytone, 5 g/L sodium chloride, 2.5 g/L dipotassium phosphate and glucose 2.5 g/L).
(§2) The minimal inhibitory concentration (MIC) values of the gallium compounds were determined using a standard broth dilution method as described previously ([Wiegand et al., 2008]). In brief, the compounds were two-fold serially diluted to concentrations from 400 to 1.56 μM. Approximately 50 μL of the compound solution was added to a 96-well microtiter plate and mixed with 50 μL of bacteria culture in log phase (10^6 CFU/ml). The bacterial culture was further incubated at 37°C for 22–24 h. The OD600 values for each well was recorded on a microplate reader. The MICs value was defined as the lowest compound concentration that inhibited 95% of the bacterial growth.

[2] = system: Pseudomonas aeruginosa strain PAO1; assay: MIC by standard broth dilution; type: cell-based
Experimental: as §1, §2

[3] = system: Burkholderia cepacia J2315; assay: MIC by standard broth dilution; type: cell-based; conditions: Table S1
Experimental: as §1, §2

Escherichia coli MG16552 = assay: MIC by standard broth dilution; type: cell-based; conditions: Table S1
Experimental: as §1, §2

P. aeruginosa [4] = assay: Bacterial growth curves; type: cell-based, Pseudomonas aeruginosa; conditions: 25 μM
Experimental: as §1

lung carcinoma A549 cell = assay: MTT cytotoxicity assay; type: cell-based, Human; conditions: 48 h
Experimental: The cytotoxicity of gold compounds to mammalian cells was measured using the 3-(4, 5-dimethylthiazol-2-yl)-2, 5-diphenyltetrazolium bromide (MTT) assay. Human hepatocyte L-O2 cell, and lung carcinoma A549 cell were cultured in Corning 96 well microplates (10^4 cells per well) at 37°C for 18 h. Then the cells were incubated with gradient concentrations of gold compounds at 37°C for another 48 h. After the treatment, cell culture media were removed and the plates were wash with PBS for three times. And 90 μL fresh media and 10 μL 5 mg/ml MTT solution were added to each well and further incubated at 37°C for 4 h. Subsequently, the media were removed from the wells and 150 μL DMSO was added into each well to dissolve the formazan crystals. The absorbance at 490 nm of each well was measured with a micro-plate reader. The experiments were carried out in triplicates.

rhamnolipid = assay: Rhamnolipid measurement (anthrone); type: cell-based, Pseudomonas aeruginosa; conditions: 15 μM
Experimental: To quantify the secreted virulence factors, overnight P. aeruginosa PAO1 was diluted in fresh M9 medium and cultured to a final OD600 value of 0.15. Then Au1 or auranofin were added into culture with indicated concentrations. After 24 h incubation at 37°C, the bacterial supernatants were collected by centrifugation at 4,000 g for 10 min at 4°C and filtered using a 0.22 μm syringe filter (Millipore). The secreted virulence factors in the supernatant were quantified by the methods described below.
For rhamnolipid measurement, rhamnolipid was extracted from the supernatant with a mixture of chloroform and methanol (v:v = 2:1). The organic solvent phase was then evaporated to dryness and 100 μL methanol was added to dissolve the extracted rhamnolipid. Then 200 μL of pre-cooled anthrone solution (dissolving 2 g of anthrone in 1 L of concentrated H2SO4) was added into 20 μL extracted rhamnolipid sample and heat at 80°C for 30min. The rhamnolipid concentration was determined by measurement the absorbance at 630 nm.

P. aeruginosa [5] = assay: Bacterial membrane permeability, propidium iodide flow cytometry; type: cell-based, Pseudomonas aeruginosa; conditions: 30 min, PI staining
Experimental: Overnight P. aeruginosa culture was diluted 1:100 with fresh M9 medium and grown to early-mid exponential phase (OD600 = 0.4–0.6). […] Then the bacteria were incubated with propidium iodide (PI), a dye that is excluded from cells with impermeable membrane. The CytoFLEX flow cytometry (Beckman Coulter) was used to measure the bacterial fluorescent intensities and the data was analyzed using CytExpert 2.4 software. For the time-course detection of the bacterial permeability induced by Au1 or auranofin, P. aeruginosa in early-mid exponential phase (OD600 = 0.2) was incubated with PI dye on a 96-well plate. Au1 or auranofin was added to a final concentration of 50 μM. The fluorescence signal (561 nm excitation, 590 nm emission) and OD600 value were recorded on Cytation5 microplate reader. Each experiment was performed in triplicates.

P. aeruginosa [6] = assay: Drug resistance development assay (serial passage); type: cell-based, Pseudomonas aeruginosa; conditions: over 14 days
Experimental: Development of resistance to the Au1 compound and the antibiotics (ciprofloxacin and tobramycin) were assessed as described by [Habets and Brockhurst (2012)]. The MIC assay was performed on the first day as described above. […] Thereafter, a new passage MIC measurement assay was prepared using diluted bacterial cells grown at 0.5-fold MIC suspension. This was repeated for 14 passages and the MIC values for Au1, ciprofloxacin and tobramycin were recorded for each passage.

[7] = Pseudomonas aeruginosa PAO1, Table S1, read-out: MIC

Compound	toxicity to the mice (mice weights) (P. aeruginosa PAO1; 50 μM, 20 μL on wound, 8 days)	bacteria in wound tissue (Gram staining) (P. aeruginosa PAO1; 8th day)	bacteria remained live in the infection sites (P. aeruginosa PAO1; 8th day, CFU)	MIC [1]	MIC ([2]; P. aeruginosa PAO1, lowest concentration inhibiting 95% of growth, 22–24 h, Table 1, listed as auranofin)	MIC ([2]; P. aeruginosa PAO1, lowest concentration inhibiting 95% of growth, 22–24 h, Table 1, read-out: MIC)	MIC [2, 7]	MIC [3]	MIC (Escherichia coli MG16552)	impact on the bacterial growth (P. aeruginosa [4])	IC50 (lung carcinoma A549 cell)	synthesis of rhamnolipid (rhamnolipid)	bacterial fluorescence signal compared with the control group (P. aeruginosa [5]; 50 μM)	increase of MIC values (P. aeruginosa [6])	bacterial fluorescence signal compared with the control group (P. aeruginosa [5]; 5 μM)
CC(=O)OC[C@H]1O[C@@H]([S-])[C@H](OC(C)=O)[C@@H](OC(C)=O)[C@@H]1OC(C)=O.CCP(CC)CC.[Au+] [Au9, auranofin]	no significant toxicity	large number of bacteria	approximately 70%	<1.56 µM	higher than 400 μM	>400 µM	>100 µM	>100 µM	>100 µM	little impact	2.8 ± 0.4 µM	significantly suppress	did not significantly affect		
CC1(C)S[C@@H]2[C@H](NC(=O)C(C(=O)O)c3ccccc3)C(=O)N2[C@H]1C(=O)O (some centres unmarked) [Carbenicillin]				6.25 µM (≈ 2.37 µg/mL)			> 100 µM	> 100 µM	25 µM (≈ 9.46 µg/mL)						
O=C(O)c1cn(C2CC2)c2cc(N3CCNCC3)c(F)cc2c1=O [Ciprofloxacin, ciprofloxacin]				< 1.56 µM			< 1.56 µM	25 µM (≈ 8.28 µg/mL)	< 1.56 µM					30 times	
NC[C@H]1O[C@H](O[C@H]2[C@H](O)[C@@H](O[C@H]3O[C@H](CO)[C@@H](O)[C@H](N)[C@H]3O)[C@H](N)C[C@@H]2N)[C@H](N)C[C@@H]1O [Tobramycin, tobramycin]				25 µM (≈ 11.7 µg/mL)			12.5 µM (≈ 5.84 µg/mL)	> 100 µM	50 µM (≈ 23.4 µg/mL)					30 times	
polymyxin B				>100 µM			<1.56 µM	>100 µM	<1.56 µM						remarkably increased
